We go through four compounds from patent US7425579B2, “Methods for inhibiting activity of polyamine transporters” (Universite Laval, priority 1998, dated 2008).

SMILES strings stand for the structures. Where two headings read alike, the source gives them in different places.

The subject of series [1] is mammalian polyamine carrier. The series can be described thus: Determination of polyamine uptake activity: inhibition of diamine and polyamine transport in T-47D cells. Conditions: for Ki: mean±SD. Type of series: cell-based, human. As for the experimental part: The rate of diamine and polyamine transport was determined in T-47D and ZR-75-1 cells incubated in serum-free RPMI 1640 medium as previously described (U.S. Pat. No. 6,083,496; Covassin et al. (1999) Bioorg. Med. Chem. Lett. 9, 1709-1714), using 20 μM [^3H]putrescine (179 Ci/mol), 5 μM [^3H]spermidine (246 Ci/mol) and 3 μM [^14C]spermine (300-400 mCi/mol) respectively, as substrates for a 20-min assay period. Uptake activity was expressed per amount of DNA as fluorometrically determined using 3,5-diaminobenzoic acid (Simard et al. (1990) Endocrinology 126, 3223-3231). Kinetic parameters of polyamine transport inhibition for the transport antagonists were determined by Lineweaver-Burke analysis of uptake activity in the presence of 0.1 μM [^3H]putrescine, 0.03 μM [^3H]spermidine, and 0.01 μM [^14C]spermine plus increasing concentrations of nonradioactive substrate. For competitive inhibitors, Ki values were estimated by iterative curve fitting for sigmoidal equations describing transport rates in the presence of increasing concentrations of antagonist, using the Cheng-Prusoff equation for competitive inhibition (U.S. Pat. No. 6,083,496).
The ability of BSD and BNSD compounds to inhibit uptake of the main natural substrates of the mammalian polyamine carrier, namely putrescine, spermidine and spermine, was evaluated using T-47D human breast cancer cells (Table 1).
Data are presented as the mean±SD of at least two independent determinations of IC50 values, each based on triplicate determinations of uptake velocity at increasing inhibitor concentrations.
The potency of the polyamines and their xylylated dimers as competitive inhibitors of spermidine transport was evaluated in the T-47D human breast cancer cell line (Table 2).

Series [2] relates to T-47D cells. The series can be described thus: Reversal of DFMO-induced cytostasis by exogenous spermidine in T-47D cells. The conditions noted are these: T-47D cells with extracellular spermidine and DFMO. Type of series: cell-based, human. The protocol: FIGS. 6A, 6B, 6C and 6D are graph showing that antagonism of DFMO-induced cytostasis by exogenous spermidine depends on the polyamine and linker structure of the compounds used in a method according to a preferred embodiment of the invention. In particular, T-47D cells were grown for 8-9 d with the indicated concentrations of spermidine in medium containing 1 mM aminoguanidine, in the presence of DFMO (●), transport inhibitor (□), DFMO plus transport inhibitor (▪), or in the absence of either agent (∘), and total DNA content per culture was then determined. Panels A, B, C, and D describe the effect of BNSD-X, BSD-X, BNSD-3 and BSD-3, respectively. Data are presented as the mean±SD for triplicate cultures from one out of at least two identical experiments;
(§1) FIGS. 8A and 8B are graphs representing the time course of the effect of a compound used in a method according to a preferred embodiment of the invention on rescue of DFMO-induced cytostasis by exogenous spermidine. In particular, at time zero, T-47D (panel A) or CHO-K1 (panel B) were seeded at 1×10^4 or 5×10^3 cells/well, respectively, in medium containing 1 mM aminoguanidine, plus either 0.3 μM spermidine (Spd, ●), 2 mM DFMO (□), Spd+DFMO (▪), 50 μM (A) or 100 μM (B) BNSD-X (Δ), BNSD-X+Spd (▴), BNSD-X+DFMO (□), BNSD-X+Spd+DFMO (▾), or vehicle only (∘). At the indicated time, total DNA content/well was determined. Data are presented as the mean±SD for triplicate cultures from one representative experiment;
(§2) To determine the ability of polyamine transport antagonists to potentiate DFMO-induced inhibition of cell proliferation in the presence of exogenous polyamines, cells were grown for the indicated period in growth medium supplemented with 1 mM aminoguanidine, and either DFMO (1 to 5 mM), the indicated transport inhibitor (50 or 100 μM), or the combination thereof, as well as increasing concentrations of spermidine (0.1 to 300 μM). Fresh medium was added every other day, and cell mass was determined at various time points during the period of exponential growth, or at the end of the experimental period. For the latter experiments, the FBS supplement was replaced with dextran-coated charcoal-treated FBS (5%, v/v) plus 0.5 μg/ml insulin in the case of T-47D, ZR-75-1 and MCF-7 cells (U.S. Pat. No. 6,083,496).

Series [3] concerns CHO-K1, Jurkat, L1210, MDA-MB-231, ZR-75-1 and MCF-7 cells. The series can be described thus: Reversal of DFMO-induced cytostasis by exogenous spermidine in a variety of mammalian cell lines. The conditions noted are these: most cell lines; concentrations as low as. Type of series: cell-based. The protocol:
FIGS. 5A, 5B, 5C, 5D, 5E and 5F are graphs representing that a compound used in a method according to a preferred embodiment antagonizes rescue of DFMO-induced cytostasis by exogenous spermidine. In particular, CHO-K1 (A), Jurkat (B), L1210 (C), MDA-MB-231 (D), ZR-75-1 (E) and MCF-7 cells (F) were grown to near confluency or saturation (for 4 to 11 d according to the cell line considered) with the indicated concentrations of spermidine in medium containing 1 mM aminoguanidine, in the presence of DFMO (●), BNSD-X (□), DFMO plus BNSD-X (▪), or in the absence of either agent (∘), and total DNA content per culture was then determined. The optimal concentration of either DFMO (1 to 5 mM) or BNSD-X (50 or 100 μM) was used for the each cell line as determined in pilot experiments. Data are presented as the mean±SD for triplicate cultures from one out of at least three identical experiments for each cell line;
as §2

Series [4] deals with CHO-K1 cells. The series can be described thus: Reversal of DFMO-induced cytostasis by exogenous spermidine in CHO-K1 cells. The class given is cell-based, Chinese hamster. The conditions noted are these: DFMO-treated CHO-K1 cells with extracellular spermidine; data not shown. As for the experimental part: as §1, §2
Series [5] deals with T-47D cells. The series can be described thus: Effect of inhibitors on T-47D cell proliferation (DNA content). The class given is cell-based, human. The protocol:
FIGS. 3A and 3B are graphs showing the effect compounds used in a method according preferred embodiment of the present invention, on cell proliferation. In particular, they relate to the effect of selected BSD and BNSD derivatives on T-47D cell proliferation. Cells were incubated for 9 d with the indicated concentrations of BSD-2 (∘), BNSD-4 (●), BSD-4 (□), BNSD-6 (▪), BSD-10 (Δ), BSD-4-ene (▴) and BSD-4-yne (▾) in medium containing 1 mM aminoguanidine, and total DNA content per culture was then determined. B, Effect of BNSD-X (N,N,N′,N′-tetrakis-(3-aminopropyl)-p-diaminoxylene) on cell proliferation in various mammalian cell lines. Jurkat (∘), LAN-1 (●), L1210 (□), T-47D (▪), ZR-75-1 (Δ) and MDA-MB-231 (▴) cells were grown to near confluency or saturation (for 4 to 11 d according to the cell line considered) with the indicated concentrations of BNSD-X in the presence of 1 mM aminoguanidine, and total DNA content per culture was then determined. Data are given as the mean±SD for triplicate cultures from one out of at least two identical experiments;
FIGS. 4A and 4B are graphs showing how compounds used in a method according to a preferred embodiment are differentially sensitive to degradation by BSAO (bovine serum amine oxidase). In particular, T-47D cells were incubated for 9 d with the indicated concentrations of BSD-X (∘), BNSD-X (●), BSD-3 (□) or BNSD-3 (▪) in the absence (A) or presence of 1 mM aminoguanidine (B), and total DNA content per culture was then determined. Data are presented as the mean±SD for triplicate cultures from one representative experiment;
The effect of transport inhibitors on cell proliferation was evaluated by determination of cell number (L1210, Jurkat) using electronic sizing with a Model ZM Coulter counter (Coulter Electronics, Hialeah, Fla.), or DNA content per culture (for all other cell lines) with the 3,5-diaminobenzoic acid assay. […] Cytotoxicity of the inhibitors was determined in the presence or absence of aminoguanidine, and was confirmed by a trypan blue exclusion assay.

The mark [6] stands for this setting: T-47D breast cancer cells, read-out: Ki, inhibition of [3H]putrescine uptake.
[7] abbreviates: T-47D breast cancer cells, read-out: Ki, inhibition of [3H]spermidine uptake.
Where [8] appears, read: T-47D breast cancer cells, read-out: Ki, inhibition of [14C]spermine uptake.

As for `NCCCCN(CCCN)CCCN(CCCN)CCCCN` [19b], the figures for the inhibitory constant (Ki) in series [1] (setting [6]), in series [1] (setting [7]) and in series [1] (setting [8]) were 240 ± 30 nM, 1700 ± 400 nM and 2800 ± 600 nM, respectively. Also, the “effect on spermidine-mediated reversal of DFMO-induced growth inhibition, T-47D” value in series [2] is recorded as “significantly potentiated DFMO-induced cytostasis”.
`NCCCCNCCCN` [Spermidine, reference compound]: the Michaelis constant (Km) (in general, the concentration of substrate that gives half-maximal velocity) is 4.4 ± 0.9 µM in series [1] (T-47D breast cancer cells, substrate itself, read-out: Km for [3H]spermidine uptake) and 4.4 ± 0.9 µM in series [1] (T-47D cells, Lineweaver-Burke analysis, 0.01-300 μM substrate, read-out: Km for spermidine uptake (Table 2)). The “spermidine concentration that completely counteracts DFMO-induced cytostasis” value in series [3] lay in the range of 0.3 to 1 µM.
As for `NCCCCN(CCCN)Cc1ccc(CN(CCCN)CCCCN)cc1` [28b], the “effect on spermidine-mediated reversal of DFMO-induced growth inhibition, CHO-K1” value in series [4] is on record as “afforded increased resistance to exogenous spermidine”. In addition, the Ki – broadly, the dissociation constant of the complex between target and ligand, obtained from inhibition or displacement – in series [1] (setting [6]) was found to be 280 ± 20 nM; in series [1] (setting [7]), 2000 ± 200 nM; in series [1] (setting [8]), 2900 ± 600 nM. Moreover, in series [2], the “effect on spermidine-mediated reversal of DFMO-induced growth inhibition, T-47D” value was “did not increase the range of spermidine concentrations able to reverse inhibition of cell proliferation by DFMO”.
As for `NCCCN(CCCN)CCCN(CCCN)CCCN` [19a], the “effect on spermidine-mediated reversal of DFMO-induced growth inhibition, CHO-K1” value in series [4] was “exhibited no activity”. The Ki is 1600 ± 400 nM in series [1] (setting [6]), 8300 ± 800 nM in series [1] (setting [7]) and 6200 ± 1700 nM in series [1] (setting [8]). Also, the “times less potent than BSD-3 as a spermidine transport antagonist” value in series [1] (T-47D cells) was “about 5 times”. Moreover, the “cytotoxicity in the absence of aminoguanidine” value in series [5] is recorded as “considerably more cytotoxic than their spermidine-like homologs”. Further, the “effect on spermidine-mediated reversal of DFMO-induced growth inhibition, T-47D” value in series [2] is “exhibited no activity”.
